In PMC2658056 (The Journal of Biological Chemistry, 2009):
Changes are numbered by the printed parent chain. Values after ≈ are worked out from the molar mass of the structure shown.

What was measured:
[1] = molecular target: T1, C89A/C186A mutant of mouse L-PGDS (Mus musculus, UniProt O09114, C186A/C89A); experiment: Intrinsic tryptophan fluorescence quenching assay, C89A/C186A mutant; format: binding
T1 sequence (O09114 23-189 C89A/C186A): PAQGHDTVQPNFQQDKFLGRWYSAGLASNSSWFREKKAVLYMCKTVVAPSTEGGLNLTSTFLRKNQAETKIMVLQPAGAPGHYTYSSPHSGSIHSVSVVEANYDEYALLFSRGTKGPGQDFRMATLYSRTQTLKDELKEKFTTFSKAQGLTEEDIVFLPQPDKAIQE

[2] = molecular target: T2, W54A/C89A/C186A mutant of mouse L-PGDS (Mus musculus, UniProt O09114, C186A/C89A/W54A); experiment: Intrinsic tryptophan fluorescence quenching assay, W54A/C89A/C186A mutant; format: binding
T2 sequence (O09114 23-189 W54A/C89A/C186A): T1 sequence (O09114 23-189 C89A/C186A) with W32A

brain of H-PGDS KO mice = experiment: PG production by stab wound brain injury
[3] = Maximum solubility in aqueous solution; format: physicochemical
COX-1 = COX-1 (Homo sapiens, UniProt P23219); experiment: COX-1 enzyme activity assay; format: biochemical; settings: AT-56 up to 250 μM
COX-1, sequence (P23219 24-599): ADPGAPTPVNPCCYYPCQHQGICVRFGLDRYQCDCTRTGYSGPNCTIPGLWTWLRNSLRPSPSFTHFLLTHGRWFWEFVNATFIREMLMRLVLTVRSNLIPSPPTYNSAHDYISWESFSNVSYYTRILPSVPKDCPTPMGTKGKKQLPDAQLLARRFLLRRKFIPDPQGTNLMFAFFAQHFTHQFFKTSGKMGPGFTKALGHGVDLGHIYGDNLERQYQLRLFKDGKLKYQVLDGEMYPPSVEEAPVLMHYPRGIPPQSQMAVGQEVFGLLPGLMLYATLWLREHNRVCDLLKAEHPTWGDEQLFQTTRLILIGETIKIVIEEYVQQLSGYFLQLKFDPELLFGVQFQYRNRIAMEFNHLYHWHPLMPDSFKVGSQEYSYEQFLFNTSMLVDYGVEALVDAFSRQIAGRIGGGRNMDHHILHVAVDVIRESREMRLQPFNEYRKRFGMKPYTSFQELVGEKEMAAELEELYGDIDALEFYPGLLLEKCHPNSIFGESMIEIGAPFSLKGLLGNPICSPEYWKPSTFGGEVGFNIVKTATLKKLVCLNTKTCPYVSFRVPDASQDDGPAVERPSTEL

H-PGDS = H-PGDS (Homo sapiens, UniProt O60760); experiment: H-PGDS enzyme activity assay; format: biochemical; settings: AT-56 up to 250 μM
H-PGDS, sequence (O60760 whole entry, species assumed): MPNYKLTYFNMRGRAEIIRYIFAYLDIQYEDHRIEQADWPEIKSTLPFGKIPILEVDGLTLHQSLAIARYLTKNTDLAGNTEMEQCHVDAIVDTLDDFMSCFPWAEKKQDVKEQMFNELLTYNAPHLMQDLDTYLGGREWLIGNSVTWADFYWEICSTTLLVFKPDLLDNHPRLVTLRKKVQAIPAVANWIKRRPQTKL

[4] = Acute toxicity after oral administration; format: in vivo; settings: dose of 100 mg/kg
COX-2 = molecular target: T3, COX-2 (Homo sapiens, UniProt P35354); experiment: COX-2 enzyme activity assay; format: biochemical; settings: AT-56 up to 250 μM
T3 sequence (P35354 18-604): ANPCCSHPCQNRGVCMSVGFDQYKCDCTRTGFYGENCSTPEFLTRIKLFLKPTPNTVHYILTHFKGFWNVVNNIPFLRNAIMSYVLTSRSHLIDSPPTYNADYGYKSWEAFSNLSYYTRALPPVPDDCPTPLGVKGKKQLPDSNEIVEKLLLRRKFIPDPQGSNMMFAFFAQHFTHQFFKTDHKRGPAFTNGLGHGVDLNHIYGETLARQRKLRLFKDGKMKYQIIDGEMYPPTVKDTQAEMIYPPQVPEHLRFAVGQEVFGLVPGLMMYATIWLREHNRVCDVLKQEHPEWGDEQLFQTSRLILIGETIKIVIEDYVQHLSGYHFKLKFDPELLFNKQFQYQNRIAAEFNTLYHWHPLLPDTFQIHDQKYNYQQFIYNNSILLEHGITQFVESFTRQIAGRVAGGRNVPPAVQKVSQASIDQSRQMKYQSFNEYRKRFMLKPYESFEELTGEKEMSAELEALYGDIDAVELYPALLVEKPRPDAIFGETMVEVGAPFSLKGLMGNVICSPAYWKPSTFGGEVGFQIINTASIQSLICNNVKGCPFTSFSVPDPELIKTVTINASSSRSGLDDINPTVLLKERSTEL

[5] = system: L-PGDS-expressing human medulloblastoma TE-671 cells; experiment: PG production by A23187-stimulated TE-671 cells; format: cell-based
[6] = system: H-PGDS-expressing human megakaryoblastic MEG-01S cells; experiment: PGD2 production by A23187-stimulated MEG-01S cells; format: cell-based
human L-PGDS TG mice = experiment: L-PGDS-mediated allergic airway inflammation; format: in vivo
[7] = Pharmacokinetics of AT-56 in plasma; format: in vivo, C57BL/6 mice; settings: male, C57BL/6, mouse; for Tmax: mice
[8] = molecular target: T4, recombinant mouse L-PGDS C89A/C186A mutant (Mus musculus, UniProt O09114, C186A/C89A); experiment: biochemical
T4 sequence (O09114 23-189 C89A/C186A): T1 sequence (O09114 23-189 C89A/C186A)

m-PGES-1 = molecular target: T5, m-PGES-1 (Homo sapiens, UniProt O14684); experiment: m-PGES-1 enzyme activity assay; format: biochemical; settings: AT-56 up to 250 μM
T5 sequence (O14684 1-152): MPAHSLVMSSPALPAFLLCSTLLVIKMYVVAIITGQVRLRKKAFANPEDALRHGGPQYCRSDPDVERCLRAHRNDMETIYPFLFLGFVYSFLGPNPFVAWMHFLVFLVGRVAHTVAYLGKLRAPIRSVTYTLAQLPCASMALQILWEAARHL

[9] = 0 to 30 μM AT-56, 5 μM A23187, enzyme immunoassay

CC1=C(/C=C/C(C)=C/C=C/C(C)=C\C(=O)O)C(C)(C)CCC1 [13-cis-retinoic acid, reference compound]
tryptophan fluorescence intensity decreased to ([1]; 10 μM 13-cis-retinoic acid, absence of AT-56): about 8% | tryptophan fluorescence intensity decreased to ([1]; 10 μM 13-cis-retinoic acid, in the presence of 10 μM AT-56): < 10% | tryptophan fluorescence intensity decreased to ([2]; 10 μM 13-cis-retinoic acid): < 10%

C1=Cc2ccccc2C(=C2CCN(CCCCc3nn[nH]n3)CC2)c2ccccc21 [AT-56, 4-dibenzo[a,d]cyclohepten-5-ylidene-1-[4-(2H-tetrazol-5-yl)-butyl]-piperidine]
total amount of PGD2 in the brain decreased to (brain of H-PGDS KO mice; 30 mg/kg AT-56 orally 1 h before the injury): 40% | amount of PGE2 in the brain (brain of H-PGDS KO mice; AT-56 orally 1–30 mg/kg): not significantly changed | amount of PGF2α in the brain (brain of H-PGDS KO mice; AT-56 orally 1–30 mg/kg): not significantly changed | solubility ([3]; 10% DMSO): 260 µM (≈ 103 µg/mL) | solubility ([3]; saline containing 1% DMSO): 90 µM (≈ 35.8 µg/mL) | effect on COX-1 activity (COX-1): not significantly affected | effect on binding of 13-cis-retinoic acid to L-PGDS ([1]; 10 μM AT-56): did not inhibit the binding | tryptophan fluorescence intensity decreased to ([1]; 10 μM AT-56): about 60% | effect on H-PGDS activity (H-PGDS): not significantly affected | acute toxic effects [4]: did not detect any acute toxic effects | fluorescence quenching ([2]; 10 μM AT-56): did not show the fluorescence quenching | effect on COX-2 activity (COX-2): not significantly affected | effect on PGE2 production [5, 9]: without affecting | effect on PGF2α production [5, 9]: without affecting | PGD2 biosynthesis ([5]; 10 μM AT-56, A23187): only a base level | arachidonic acid release ([5]; 10 μM AT-56, A23187): without changing | IC50 ([5]; Homo sapiens, TE-671, read-out: IC50, PGD2 production): ~3 µM | production of other 14C-labeled metabolites ([5]; [1-14C]arachidonic acid-prelabeled cells, AT-56 up to 100 μM): not inhibited | effect on PGD2 production [6]: no effect | total cells in BALF, actual number (human L-PGDS TG mice; 1 mg/kg AT-56 p.o.): 8.7 ± 1.9 × 10^4 cells/ml | total cells in BALF, actual number (human L-PGDS TG mice; 10 mg/kg AT-56 p.o.): 2.7 ± 0.4 × 10^4 cells/ml | AUC ([7]; iv, 2 mg/kg): 1280 ng·h/mL | C0 ([7]; iv, 2 mg/kg): 860 ng/mL | half-life ([7]; iv, 2 mg/kg): 2.35 h | Tmax ([7]; iv, 2 mg/kg): 0.08 h | AUC ([7]; po, 10 mg/kg): 8950 ng·h/mL | Cmax ([7]; po, 10 mg/kg): 2150 ng/mL | bioavailability ([7]; po, 10 mg/kg): 82% | concentration at 12 h ([7]; po, 10 mg/kg): < 0.4 ng/mL | half-life ([7]; po, 10 mg/kg): 1.71 h | Tmax ([7]; po, 10 mg/kg, per os): 0.5 h | IC50 [8]: 95 µM | Ki [8]: 75 µM | effect on m-PGES-1 activity (m-PGES-1): not significantly affected

c1ccc(C(OC2CCN(CCCc3nnn[nH]3)CC2)c2ccccc2)cc1 [HQL-79, 4-benzhydryloxy-1-(3-(1H-tetrazol-5-yl)-propyl)-piperidine, reference compound]
effect on PGD2 production ([5]; TE-671 cells): but not from TE-671 cells | effect on PGD2 production [6]: inhibited PGD2 production
